Consider 20 compounds from patent publication US9908843B2, “Benzamide derivatives useful in the treatment of muscular disorders and pain and for controlling spasticity and tremors” (Canbex Therapeutics Limited, priority 2013, dated 2018).

One test concerns mouse vas deferens. The test is described as follows: Inhibition of electrically-evoked contractions of the mouse isolated vas deferens. The class given is cell-based. The note with it: for potency (EC50) greater than VSN-16R: vas deferens mouse assay, relative to VSN-16R. Here is the method:
Compounds were evaluated using a mouse vas deferens preparation [Ward S, Mastriani D, Casiano F and Arnold R (1990) J Pharmacol Exp Ther 255:1230-1239]. The mouse vas deferens isolated tissue preparation is used as an in vitro bioassay to assess the actions of compounds on neurotransmission. Electrically-evoked contractions are induced in the preparation and compounds which affect neurotransmission will inhibit these contractions in a concentration related manner. […] CB1 agonists inhibit electrically-evoked contractions.
Vasa deferentia were obtained from albino MF1 mice weighing 31-59 g. The tissues were mounted vertically in 4 ml organ baths. They were then subjected to electrical stimulation of progressively greater intensity, followed by an equilibration procedure in which they were exposed to alternate periods of stimulation (2 min) and rest (10 min) until contractions with consistent amplitudes were obtained. These contractions were monophasic and isometric, and were evoked by 0.5 s trains of pulses of 110% maximal voltage (train frequency 0.1 Hz; pulse frequency 5 Hz; pulse duration 0.5 ms).
All drug additions were made to the organ baths after the equilibration period and there was no washout between these additions. Potential antagonist or its vehicle were added to the preparation. This was followed 28 min later by a 2-min period of electrical stimulation, at the end of which the lowest of a series of concentrations of the twitch inhibitors was applied. After a period of rest, the tissues were electrically stimulated for 2 min and then subjected to a further addition of twitch inhibitor. This cycle of drug addition, rest and 2 min stimulation was repeated so as to construct cumulative concentration—response curves. Only one concentration—response curve was constructed per tissue.
Values for EC50, maximal effect (Emax) and the s.e.m. or 95% confidence limits of these values have been calculated by nonlinear regression analysis using the equation for a sigmoid concentration—response curve (GraphPad Prism).

For a further test, the system named is spasticity in CREAE mice. The note with it: cited from earlier work.
Test [1] concerns mouse vas deferens (CB2 knock-out). The test is described as follows: VSN-16R dose response curve in mouse vas deferens, CB2 knock-out. The format is cell-based.
The subject of test [2] is mouse vas deferens (CB1 knock-out). The test is described as follows: VSN-16R dose response curve in mouse vas deferens, CB1 knock-out. The class given is cell-based.
[3] abbreviates: Mus musculus, Table 2, read-out: EC50.
Setting [4] is: Mus musculus, Table 2, read-out: Emax (%).

As usually defined, the Emax is the size of the effect at its maximum, as opposed to the concentration needed.

Each structure is given as a SMILES string. Like-named read-outs stand apart in the source and are kept apart here. Bounds are passed on as bounds.

For `COC(=O)[C@H](CO)NC(=O)c1cccc(C#CCCCC(=O)N(C)C)c1` [[24], (S)-methyl 2-(3-(6-(dimethylamino)-6-oxohex-1-yn-1-yl)benzamido)-3-hydroxypropanoate], the EC50 in the test on mouse vas deferens (setting [3]) turned out to be 0.412 nM. In the test on mouse vas deferens (setting [4]), the Emax stood at 51.5%.

Turning to `COC(=O)[C@@H](C)NC(=O)c1cccc(C#CCCCC(=O)N2CCCC2)c1` [[20], (R)-methyl 2-(3-(6-oxo-6-(pyrrolidin-1-yl)hex-1-yn-1-yl)benzamido)propanoate], in the test with mouse vas deferens (setting [3]), the EC50 came to 0.466 nM. In the test on mouse vas deferens (setting [4]), the Emax is 44.7%.

Take `Cc1c(C(=O)c2cccc3ccccc23)c2cccc3c2n1[C@H](CN1CCOCC1)CO3` [WIN55212-2, reference compound]: the “pEC50 ± SEM” value with mouse vas deferens (Table 1) is given as 8.41 ± 0.237. Besides, the “Emax (%) ± 95% confidence limits” value in the test on mouse vas deferens (Table 1, inhibition of electrically-evoked twitch response) is 62 (52-72) %. In addition, the EC50 in the test with mouse vas deferens (Table 1, read-out: EC50) came out at 3.86 nM.

For `COC(=O)[C@@H](C)NC(=O)c1cccc(/C=C\CCCC(=O)N2CCCC2)c1` [[21], (R,Z)-methyl 2-(3-(6-oxo-6-(pyrrolidin-1-yl)hex-1-en-1-yl)benzamido)propanoate], the EC50 with mouse vas deferens (setting [3]) is 0.162 nM. Also, the Emax with mouse vas deferens (setting [4]) turned out to be 58.3%.

Regarding `CN(C)C(=O)CCC/C=C\c1cccc(C(=O)N[C@@H](Cc2ccccc2)C(=O)O)c1` [[17], (S,Z)-2-(3-(6-(dimethylamino)-6-oxohex-1-en-1-yl)benzamido)-3-phenylpropanoic acid], the EC50 in the test with mouse vas deferens (setting [3]) was 0.14 nM. The Emax in the test with mouse vas deferens (setting [4]) was 56.3%.

As for `CN(C)C(=O)CCC/C=C\c1cccc(C(=O)N[C@@H](CO)C(=O)O)c1` [[18], (S,Z)-2-(3-(6-(dimethylamino)-6-oxohex-1-en-1-yl)benzamido)-3-hydroxypropanoic acid], the EC50 with mouse vas deferens (setting [3]) worked out at 0.382 nM. Besides, in the test on mouse vas deferens (setting [4]), the Emax was determined as 62.7%.

Consider `CN(C)C(=O)CCC/C=C\c1cccc(C(=O)NCC(=O)O)c1` [[15], (Z)-2-(3-(6-(dimethylamino)-6-oxohex-1-en-1-yl)benzamido)acetic acid], for which, in the test on mouse vas deferens (setting [3]), the EC50 was found to be 0.102 nM. For the same compound, the Emax with mouse vas deferens (setting [4]) came out at 53.7%.

Regarding `CC(CO)NC(=O)c1cccc(/C=C\CCCC(=O)N(C)C)c1` (stereo not shown) [VSN16], the effect on spasticity result in the test on spasticity in CREAE mice was “marked effect on spasticity”.

`COC(=O)CNC(=O)c1cccc(/C=C\CCCC(=O)N(C)C)c1` [[23], (Z)-methyl 2-(3-(6-(dimethylamino)-6-oxohex-1-en-1-yl)benzamido)acetate]: the EC50 in the test on mouse vas deferens (setting [3]) amounted to 0.0225 nM. In addition, the Emax in the test on mouse vas deferens (setting [4]) came out at 59.2%.

For `COC(=O)[C@H](CO)NC(=O)c1cccc(/C=C\CCCC(=O)N(C)C)c1` [[25], (S,Z)-methyl 2-(3-(6-(dimethylamino)-6-oxohex-1-en-1-yl)benzamido)-3-hydroxypropanoate], the EC50 with mouse vas deferens (setting [3]) came out at 0.359 nM. Moreover, the Emax with mouse vas deferens (setting [4]) came out at 52.9%.

On to `CN(C)C(=O)CCC/C=C\c1cccc(C(=O)N[C@H](Cc2ccccc2)C(=O)O)c1` [[16], (R,Z)-2-(3-(6-(dimethylamino)-6-oxohex-1-en-1-yl)benzamido)-3-phenylpropanoic acid], for which the EC50 in the test on mouse vas deferens (setting [3]) amounted to 0.00604 nM. The Emax in the test on mouse vas deferens (setting [4]) turned out to be 73.9%.

Take `COC(=O)[C@@H](Cc1ccccc1)NC(=O)c1cccc(/C=C\CCCC(=O)N(C)C)c1` [[31], (R,Z)-methyl 2-(3-(6-(dimethylamino)-6-oxohex-1-en-1-yl)benzamido)-3-phenylpropanoate]: the EC50 with mouse vas deferens (setting [3]) worked out at 0.0122 nM. In the test with mouse vas deferens (setting [4]), the Emax turned out to be 47%.

As to `COC(=O)CNC(=O)c1cccc(C#CCCCC(=O)N(C)C)c1` [[22], methyl 2-(3-(6-(dimethylamino)-6-oxohex-1-yn-1-yl)benzamido)acetate], the EC50 in the test with mouse vas deferens (setting [3]) worked out at 0.112 nM. Further, in the test with mouse vas deferens (setting [4]), the Emax worked out at 52.9%.

For the compound `C[C@H](CO)NC(=O)c1cccc(/C=C\CCCC(=O)N(C)C)c1` [VSN16R, reference compound], the EC50 in test [1] was 17.6 nM; in test [2], 12.7 nM; in the test on mouse vas deferens (Mus musculus, Table 1), 10.4 nM; in the test with mouse vas deferens (Mus musculus, Table 2), 0.722 nM; with mouse vas deferens (Mus musculus, read-out: pEC50 ± SEM, Table 1 (converted)), 10.5 nM; in the test with mouse vas deferens (Mus musculus, wild type, FIG. 3) it was 10.4 nM. The Emax worked out at 40.7% in the test with mouse vas deferens (Mus musculus) and 56% in the test on mouse vas deferens (Mus musculus, read-out: Emax (%) ± 95% confidence limits).

As for `COC(=O)[C@@H](Cc1ccccc1)NC(=O)c1cccc(C#CCCCC(=O)N(C)C)c1` [[30], (R)-methyl 2-(3-(6-(dimethylamino)-6-oxohex-1-yn-1-yl)benzamido)-3-phenylpropanoate], the EC50 with mouse vas deferens (setting [3]) was determined as 0.0614 nM. Further, in the test on mouse vas deferens (setting [4]), the Emax stood at 46.3%.

In the case of `CN(C)C(=O)CCC/C=C\c1cccc(C(=O)N[C@H](CO)C(=O)O)c1` [[14], (R,Z)-2-(3-(6-(dimethylamino)-6-oxohex-1-en-1-yl)benzamido)-3-hydroxypropanoic acid], the EC50 with mouse vas deferens (setting [3]) was 0.124 nM. Also, the Emax in the test with mouse vas deferens (setting [4]) turned out to be 58.5%.

Take `C[C@@H](NC(=O)c1cccc(/C=C\CCCC(=O)N(C)C)c1)C(=O)O` [[1], (Z)-(3-(6-(dimethylamino)-6-oxohex-1-en-1-yl)benzoyl)-D-alanine]: the EC50 with mouse vas deferens (Mus musculus, Table 1, read-out: EC50) is 1.42 nM; in the test on mouse vas deferens (Mus musculus, Table 1, read-out: pEC50 ± SEM (converted)) it was 1.41 nM; in the test with mouse vas deferens (setting [3]) it was 0.00655 nM. Besides, the Emax in the test with mouse vas deferens (setting [4]) was determined as 64%; in the test on mouse vas deferens (Mus musculus, Table 1, inhibition of electrically-evoked twitch response, read-out: Emax (%) ± 95% confidence limits) it was 46%. In addition, the “potency (EC50) greater than VSN-16R” value with mouse vas deferens is listed as 10 fold; in the test with mouse vas deferens (listed as VSN44), “ten-fold greater”; in the test with mouse vas deferens (listed as VSN-44) it was ≥ 10 fold.

In the case of `COC(=O)[C@H](Cc1ccccc1)NC(=O)c1cccc(/C=C\CCCC(=O)N(C)C)c1` [[27], (S,Z)-methyl 2-(3-(6-(dimethylamino)-6-oxohex-1-en-1-yl)benzamido)-3-phenylpropanoate], the EC50 in the test on mouse vas deferens (setting [3]) turned out to be 0.0908 nM. The Emax with mouse vas deferens (setting [4]) is 55.3%.

In the case of `COC(=O)[C@H](C)NC(=O)c1cccc(C#CCCCC(=O)N(C)C)c1` [[32], (S)-methyl 2-(3-(6-(dimethylamino)-6-oxohex-1-yn-1-yl)benzamido)propanoate], in the test on mouse vas deferens (setting [3]), the EC50 turned out to be 0.0131 nM. Besides, the Emax in the test on mouse vas deferens (setting [4]) was 54.6%.

`COC(=O)[C@@H](CO)NC(=O)c1cccc(/C=C\CCCC(=O)N(C)C)c1` [[29], (R,Z)-methyl 2-(3-(6-(dimethylamino)-6-oxohex-1-en-1-yl)benzamido)-3-hydroxypropanoate]: the EC50 in the test on mouse vas deferens (setting [3]) worked out at 0.0456 nM. Moreover, the Emax in the test on mouse vas deferens (setting [4]) was 62%.
